The numbers were not newly measured in US20100137843A1, “Delivery devices for modulating inflammation” (Searete LLC, a limited liability corporation of the State …, priority 2008, published 2010), which cites them from elsewhere.

One data set has as its target Toll-like receptor 4 (Homo sapiens, UniProt O00206).
Another data set deals with Epha1. The following applies: at nanomolar concentrations.
The next data set concerns Src family kinase. The following applies: also its dependent cellular responses.
Another data set has as its system aldehyde dehydrogenase. The following applies: without toxicity.
Another data set has as its system proteasome. The following applies: cultured breast cancer cells; copper-bound.
The conditions of data set [1]: single agent, 400 mg infused over one hour.

Sequence of Toll-like receptor 4 (O00206 24-839, species assumed): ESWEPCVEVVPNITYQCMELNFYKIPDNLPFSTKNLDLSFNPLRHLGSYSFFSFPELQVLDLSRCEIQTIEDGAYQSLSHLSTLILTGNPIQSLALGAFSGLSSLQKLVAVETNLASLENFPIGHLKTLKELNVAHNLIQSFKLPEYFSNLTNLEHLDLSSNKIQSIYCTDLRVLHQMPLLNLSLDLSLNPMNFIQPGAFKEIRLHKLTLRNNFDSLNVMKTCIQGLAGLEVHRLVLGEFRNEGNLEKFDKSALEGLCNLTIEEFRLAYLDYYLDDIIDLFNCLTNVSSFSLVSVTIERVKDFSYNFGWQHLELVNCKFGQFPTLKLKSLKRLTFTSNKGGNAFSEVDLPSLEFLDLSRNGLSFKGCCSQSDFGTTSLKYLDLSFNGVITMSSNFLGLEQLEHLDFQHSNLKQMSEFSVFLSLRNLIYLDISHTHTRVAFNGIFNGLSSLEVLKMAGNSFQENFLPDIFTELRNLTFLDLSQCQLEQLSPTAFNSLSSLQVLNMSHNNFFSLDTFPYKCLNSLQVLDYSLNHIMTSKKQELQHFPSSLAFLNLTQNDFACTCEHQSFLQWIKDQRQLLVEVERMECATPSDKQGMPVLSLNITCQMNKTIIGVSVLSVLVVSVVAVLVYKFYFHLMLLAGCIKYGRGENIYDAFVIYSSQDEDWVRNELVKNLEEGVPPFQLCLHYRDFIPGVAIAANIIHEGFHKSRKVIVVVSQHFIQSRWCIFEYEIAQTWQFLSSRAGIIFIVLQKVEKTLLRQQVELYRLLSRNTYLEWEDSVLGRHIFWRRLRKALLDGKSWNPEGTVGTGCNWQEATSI

For the compound `Cl.Cl.Nc1ccccc1Oc1ccc2c(N)nsc2c1` [Example M62812, 3-amino-6-(2-aminophenoxy)-1,2-benzisothiazole dihydrochloride], the “inhibition of Toll-like receptor 4” value at Toll-like receptor 4 was “inhibitor”. For the compound `Cc1nc(Nc2ncc(C(=O)Nc3c(C)cccc3Cl)s2)cc(N2CCN(CCO)CC2)n1.O` [dasatinib, N-(2-chloro-6-methylphenyl)-2-[[6-[4-(2-hydroxyethyl)-1-piperazinyl]-2-methyl-4-pyrimidinyl]amino]-5-thiazolecarboxamide, monohydrate], in the data set with Epha1, the “inhibition of Epha1” value is listed as “inhibits”. In the case of `CCN(CC)CCCC(C)Nc1ccnc2cc(Cl)ccc12` (stereo not drawn) [Chloroquine], the “inhibition of CpG-induced Src family kinase activation” value with Src family kinase is listed as “does not inhibit”.

`CCN(CC)C(=S)SSC(=S)N(CC)CC` [Disulfiram, 1-(diethylthiocarbamoyldisulfanyl)-N,N-diethyl-methanethioamide]: in the data set with aldehyde dehydrogenase, the “inhibition of aldehyde dehydrogenase” value is on record as “inhibits”. For the same compound, the proteasomal activity result in the data set on proteasome was “inhibits proteasomal activity”. Turning to `CCN(CC)CCCC(C)Nc1ccnc2cc(Cl)ccc12.O=P(O)(O)O.O=P(O)(O)O` (stereo not drawn) [Chloroquine phosphate, 7-chloro-4-[[4-(diethylamino)-1-methylbutyl]amino]quinoline phosphate (1:2)], the “tolerability of intravenous infusion” value in data set [1] is given as “without complication”.
